Measurements published in the supplement of paper PMC4862054.

Each compound was assayed on MDA-MB-436. Settings: 72 h.
Protocol: (§1)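 Drug sensitivity and resistance testing (DSRT) of breast cancer cell lines in 384-well plates, 5 concentrations in 10-fold dilutions over a compound-specific 10,000-fold range. After 72 h, cytotoxicity was read by CellTox Green fluorescence and viability by CellTiter-Glo luminescence (multiplexed), normalised to DMSO and benzethonium chloride controls. EC50 is the inflection point of the fitted dose-response curve (bottom asymptote free, so it can be relative for partial curves) and is censored at the highest tested concentration. Rows with DSS 0 (no meaningful response) were excluded.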

| SMILES | EC50, CellTox Green |
| --- | --- |
| COC(=O)C[C@](O)(CCCC(C)(C)O)C(=O)O[C@@H]1C(OC)=C[C@]23CCCN2CCc2cc4c(cc2[C@H]13)OCO4 [Omacetaxine] | 7440 nM |

Each compound was assayed on HCC1143. Settings: 72 h.
Protocol: as §1

| SMILES | EC50, CellTox Green |
| --- | --- |
| CN(c1ccccc1CNc1nc(Nc2ccc3c(c2)CC(=O)N3)ncc1C(F)(F)F)S(C)(=O)=O | 72.4 nM |
| C[C@@]1(C(=O)Nc2ccc(F)nc2)CCCN1c1nc(Nc2cc(C3CC3)n[nH]2)c2cccn2n1 | 1350 nM |

The compounds below were run on CAL-120. Settings: 72 h.
Protocol: as §1

| SMILES | EC50, CellTox Green |
| --- | --- |
| C[C@@]1(C(=O)Nc2ccc(F)nc2)CCCN1c1nc(Nc2cc(C3CC3)n[nH]2)c2cccn2n1 | 4500 nM |
| Cn1c(=O)c(F)c(Nc2ccc(I)cc2F)c2c(=O)n(C[C@@H](O)CO)cnc21 [TAK-733] | > 1000 nM |

What follows are compounds tested on CAL-85-1. Settings: 72 h.
Protocol: as §1

| SMILES | EC50, CellTox Green |
| --- | --- |
| CN(c1ccccc1CNc1nc(Nc2ccc3c(c2)CC(=O)N3)ncc1C(F)(F)F)S(C)(=O)=O | 4490 nM |
| COC1=C2C[C@@H](C)C[C@H](OC)[C@H](O)[C@@H](C)/C=C(\C)[C@H](OC(N)=O)[C@@H](OC)/C=C\C=C(/C)C(=O)NC(=CC1=O)C2=O [Geldanamycin] | 2570 nM |
| COC(=O)C[C@](O)(CCCC(C)(C)O)C(=O)O[C@@H]1C(OC)=C[C@]23CCCN2CCc2cc4c(cc2[C@H]13)OCO4 [Omacetaxine] | 41.7 nM |
| Cn1c(=O)c(F)c(Nc2ccc(I)cc2F)c2c(=O)n(C[C@@H](O)CO)cnc21 [TAK-733] | 181 nM |

These compounds were tested on MDA-MB-468. Settings: 72 h.
Protocol: as §1

| SMILES | EC50, CellTox Green |
| --- | --- |
| COC1=C2C[C@@H](C)C[C@H](OC)[C@H](O)[C@@H](C)/C=C(\C)[C@H](OC(N)=O)[C@@H](OC)/C=C\C=C(/C)C(=O)NC(=CC1=O)C2=O [Geldanamycin] | 59.8 nM |
| COC(=O)C[C@](O)(CCCC(C)(C)O)C(=O)O[C@@H]1C(OC)=C[C@]23CCCN2CCc2cc4c(cc2[C@H]13)OCO4 [Omacetaxine] | 388 nM |
| C[C@@]1(C(=O)Nc2ccc(F)nc2)CCCN1c1nc(Nc2cc(C3CC3)n[nH]2)c2cccn2n1 | 3.79 nM |
| COc1ncc(-c2ccc3nccc(-c4ccnnc4)c3c2)cc1NS(=O)(=O)c1ccc(F)cc1F | 160 nM |

Each compound was assayed on HCC1599. Settings: 72 h.
Protocol: as §1

| SMILES | EC50, CellTox Green |
| --- | --- |
| CN(c1ccccc1CNc1nc(Nc2ccc3c(c2)CC(=O)N3)ncc1C(F)(F)F)S(C)(=O)=O | > 10000 nM |
| O=C(c1ccc(OCCN2CCCCC2)cc1)c1c(-c2ccc(O)cc2)sc2cc(O)ccc12 [Raloxifene] | > 10000 nM |

The compounds below were run on CAL-148. Settings: 72 h.
Protocol: as §1

| SMILES | EC50, CellTox Green |
| --- | --- |
| COC(=O)C[C@](O)(CCCC(C)(C)O)C(=O)O[C@@H]1C(OC)=C[C@]23CCCN2CCc2cc4c(cc2[C@H]13)OCO4 [Omacetaxine] | 2670 nM |
| C[C@@]1(C(=O)Nc2ccc(F)nc2)CCCN1c1nc(Nc2cc(C3CC3)n[nH]2)c2cccn2n1 | > 10000 nM |
| COc1ncc(-c2ccc3nccc(-c4ccnnc4)c3c2)cc1NS(=O)(=O)c1ccc(F)cc1F | 74.7 nM |

These compounds were tested on MFM-223. Settings: 72 h.
Protocol: as §1

| SMILES | EC50, CellTox Green |
| --- | --- |
| COC1=C2C[C@@H](C)C[C@H](OC)[C@H](O)[C@@H](C)/C=C(\C)[C@H](OC(N)=O)[C@@H](OC)/C=C\C=C(/C)C(=O)NC(=CC1=O)C2=O [Geldanamycin] | 8020 nM |
| COC(=O)C[C@](O)(CCCC(C)(C)O)C(=O)O[C@@H]1C(OC)=C[C@]23CCCN2CCc2cc4c(cc2[C@H]13)OCO4 [Omacetaxine] | 63.7 nM |
| C[C@@]1(C(=O)Nc2ccc(F)nc2)CCCN1c1nc(Nc2cc(C3CC3)n[nH]2)c2cccn2n1 | 587 nM |
| COc1ncc(-c2ccc3nccc(-c4ccnnc4)c3c2)cc1NS(=O)(=O)c1ccc(F)cc1F | 22.4 nM |

Each compound was assayed on Hs578T. Settings: 72 h.
Protocol: as §1

| SMILES | EC50, CellTox Green |
| --- | --- |
| CN(c1ccccc1CNc1nc(Nc2ccc3c(c2)CC(=O)N3)ncc1C(F)(F)F)S(C)(=O)=O | 1290 nM |
| COC(=O)C[C@](O)(CCCC(C)(C)O)C(=O)O[C@@H]1C(OC)=C[C@]23CCCN2CCc2cc4c(cc2[C@H]13)OCO4 [Omacetaxine] | 40.8 nM |
| COc1ncc(-c2ccc3nccc(-c4ccnnc4)c3c2)cc1NS(=O)(=O)c1ccc(F)cc1F | 511 nM |

Each compound was assayed on CAL-51. Settings: 72 h.
Protocol: as §1

| SMILES | EC50, CellTox Green |
| --- | --- |
| CN(c1ccccc1CNc1nc(Nc2ccc3c(c2)CC(=O)N3)ncc1C(F)(F)F)S(C)(=O)=O | 201 nM |
